# In article PMC10945555, “Improving Activity of New Arylurea Agents against Multidrug-Resistant and Biofilm-Producing Staphylococcus epidermidis” (ACS Medicinal Chemistry Letters, 2024):
# Where two headings read alike, the source gives them in different places.
# How the values were obtained:
# Assay type in all cases: cell-based
# [1] = system: Staphylococcus epidermidis ATCC 12228; assay: MIC, broth microdilution, MSSE reference strain; details: ATCC12228, Staphylococcus epidermidis ATCC 12228, read-out: MIC MSSE
# In short: (§1)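 Compounds tested as free bases dissolved in DMSO (1 mg/mL stock); determinations done twice; linezolid as positive control.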
# [2] = system: Staphylococcus epidermidis ATCC 35984; assay: MIC, broth microdilution, MDR/BPSE reference strain; details: Staphylococcus epidermidis, ATCC35984, read-out: MIC MDR/BPSE, Staphylococcus epidermidis ATCC 35984
# In short: as §1
# [3] = system: Staphylococcus aureus ATCC BAA-976; assay: MIC, broth microdilution, MDR/BPSA reference strain; details: ATCCBAA976; Staphylococcus aureus ATCC BAA-976; read-out: MIC MDR/BPSA
# In short: as §1
# [4] = system: clinical MDR Staphylococcus epidermidis isolates; assay: MIC, broth microdilution, 81 clinical MDR strains; details: Staphylococcus epidermidis
# In short: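 MICs were determined by twofold broth microdilution in cation-adjusted Mueller-Hinton II broth per EUCAST, over 50–0.1 µg/mL, in duplicate. Compounds were tested as free bases dissolved in DMSO; MIC50 and MIC90 were derived across the 81 clinical MDR S. epidermidis strains.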
smiles,measurement,setting,value
"CC(=O)NC[C@H]1CN(c2ccc(N3CCOCC3)c(F)c2)C(=O)O1 [linezolid, reference compound]",MIC,[1],0.8 µg/mL
same,MIC,[2],1.6 µg/mL
same,MIC,[3],1.6 µg/mL
same,MIC,"[4]; clinical strain 1 (Table S2), read-out: MIC",1.6 µg/mL
same,MIC,"[4]; clinical strain 2 (Table S2), read-out: MIC",1.6 µg/mL
same,MIC,"[4]; clinical strain 3 (Table S2), read-out: MIC",1.6 µg/mL
same,MIC,"[4]; clinical strain 4 (Table S2), read-out: MIC",1.6 µg/mL
same,MIC,"[4]; clinical strain 5 (Table S2), read-out: MIC",1.6 µg/mL
same,MIC,"[4]; clinical strain 6 (Table S2), read-out: MIC",1.6 µg/mL
same,MIC,"[4]; clinical strain 7 (Table S2), read-out: MIC",1.6 µg/mL
same,MIC,"[4]; clinical strain 8 (Table S2), read-out: MIC",1.6 µg/mL
same,MIC,"[4]; clinical strain 9 (Table S2), read-out: MIC",1.6 µg/mL
same,MIC,"[4]; clinical strain 10 (Table S2), read-out: MIC",1.6 µg/mL
same,MIC,"[4]; clinical strain 11 (Table S2), read-out: MIC",1.6 µg/mL
same,MIC,"[4]; clinical strain 12 (Table S2), read-out: MIC",0.8 µg/mL
same,MIC,"[4]; clinical strain 13 (Table S2), read-out: MIC",1.6 µg/mL
same,MIC,"[4]; clinical strain 14 (Table S2), read-out: MIC",1.6 µg/mL
same,MIC,"[4]; clinical strain 15 (Table S2), read-out: MIC",1.6 µg/mL
same,MIC,"[4]; clinical strain 16 (Table S2), read-out: MIC",1.6 µg/mL
same,MIC,"[4]; clinical strain 17 (Table S2), read-out: MIC",0.8 µg/mL
same,MIC,"[4]; clinical strain 18 (Table S2), read-out: MIC",0.8 µg/mL
same,MIC,"[4]; clinical strain 19 (Table S2), read-out: MIC",1.6 µg/mL
same,MIC,"[4]; clinical strain 20 (Table S2), read-out: MIC",1.6 µg/mL
same,MIC,"[4]; clinical strain 21 (Table S2), read-out: MIC",1.6 µg/mL
same,MIC,"[4]; clinical strain 22 (Table S2), read-out: MIC",1.6 µg/mL
same,MIC,"[4]; clinical strain 23 (Table S2), read-out: MIC",1.6 µg/mL
same,MIC,"[4]; clinical strain 24 (Table S2), read-out: MIC",1.6 µg/mL
same,MIC,"[4]; clinical strain 25 (Table S2), read-out: MIC",1.6 µg/mL
same,MIC,"[4]; clinical strain 26 (Table S2), read-out: MIC",0.8 µg/mL
same,MIC,"[4]; clinical strain 27 (Table S2), read-out: MIC",1.6 µg/mL
same,MIC,"[4]; clinical strain 28 (Table S2), read-out: MIC",1.6 µg/mL
same,MIC,"[4]; clinical strain 29 (Table S2), read-out: MIC",0.8 µg/mL
same,MIC,"[4]; clinical strain 30 (Table S2), read-out: MIC",1.6 µg/mL
same,MIC,"[4]; clinical strain 31 (Table S2), read-out: MIC",1.6 µg/mL
same,MIC,"[4]; clinical strain 32 (Table S2), read-out: MIC",1.6 µg/mL
same,MIC,"[4]; clinical strain 33 (Table S2), read-out: MIC",0.8 µg/mL
same,MIC,"[4]; clinical strain 34 (Table S2), read-out: MIC",1.6 µg/mL
same,MIC,"[4]; clinical strain 35 (Table S2), read-out: MIC",1.6 µg/mL
same,MIC,"[4]; clinical strain 36 (Table S2), read-out: MIC",0.8 µg/mL
same,MIC,"[4]; clinical strain 37 (Table S2), read-out: MIC",0.8 µg/mL
same,MIC,"[4]; clinical strain 38 (Table S2), read-out: MIC",0.8 µg/mL
same,MIC,"[4]; clinical strain 39 (Table S2), read-out: MIC",0.8 µg/mL
same,MIC,"[4]; clinical strain 40 (Table S2), read-out: MIC",0.4 µg/mL
same,MIC,"[4]; clinical strain 41 (Table S2), read-out: MIC",0.8 µg/mL
same,MIC,"[4]; clinical strain 42 (Table S2), read-out: MIC",1.6 µg/mL
same,MIC,"[4]; clinical strain 43 (Table S2), read-out: MIC",0.8 µg/mL
same,MIC,"[4]; clinical strain 44 (Table S2), read-out: MIC",1.6 µg/mL
same,MIC,"[4]; clinical strain 45 (Table S2), read-out: MIC",0.8 µg/mL
same,MIC,"[4]; clinical strain 46 (Table S2), read-out: MIC",1.6 µg/mL
same,MIC,"[4]; clinical strain 47 (Table S2), read-out: MIC",0.8 µg/mL
same,MIC,"[4]; clinical strain 48 (Table S2), read-out: MIC",3.12 µg/mL
same,MIC,"[4]; clinical strain 49 (Table S2), read-out: MIC",0.2 µg/mL
same,MIC,"[4]; clinical strain 50 (Table S2), read-out: MIC",0.2 µg/mL
same,MIC,"[4]; clinical strain 51 (Table S2), read-out: MIC",0.2 µg/mL
same,MIC,"[4]; clinical strain 52 (Table S2), read-out: MIC",0.4 µg/mL
same,MIC,"[4]; clinical strain 53 (Table S2), read-out: MIC",0.4 µg/mL
same,MIC,"[4]; clinical strain 54 (Table S2), read-out: MIC",0.8 µg/mL
same,MIC,"[4]; clinical strain 55 (Table S2), read-out: MIC",0.8 µg/mL
same,MIC,"[4]; clinical strain 56 (Table S2), read-out: MIC",0.8 µg/mL
same,MIC,"[4]; clinical strain 57 (Table S2), read-out: MIC",0.8 µg/mL
same,MIC,"[4]; clinical strain 58 (Table S2), read-out: MIC",0.8 µg/mL
same,MIC,"[4]; clinical strain 59 (Table S2), read-out: MIC",0.8 µg/mL
same,MIC,"[4]; clinical strain 60 (Table S2), read-out: MIC",0.8 µg/mL
same,MIC,"[4]; clinical strain 61 (Table S2), read-out: MIC",0.8 µg/mL
same,MIC,"[4]; clinical strain 62 (Table S2), read-out: MIC",0.8 µg/mL
same,MIC,"[4]; clinical strain 63 (Table S2), read-out: MIC",0.8 µg/mL
same,MIC,"[4]; clinical strain 64 (Table S2), read-out: MIC",0.8 µg/mL
same,MIC,"[4]; clinical strain 65 (Table S2), read-out: MIC",0.8 µg/mL
same,MIC,"[4]; clinical strain 66 (Table S2), read-out: MIC",0.8 µg/mL
same,MIC,"[4]; clinical strain 67 (Table S2), read-out: MIC",1.6 µg/mL
same,MIC,"[4]; clinical strain 68 (Table S2), read-out: MIC",1.6 µg/mL
same,MIC,"[4]; clinical strain 69 (Table S2), read-out: MIC",1.6 µg/mL
same,MIC,"[4]; clinical strain 70 (Table S2), read-out: MIC",1.6 µg/mL
same,MIC,"[4]; clinical strain 71 (Table S2), read-out: MIC",1.6 µg/mL
same,MIC,"[4]; clinical strain 72 (Table S2), read-out: MIC",1.6 µg/mL
same,MIC,"[4]; clinical strain 73 (Table S2), read-out: MIC",1.6 µg/mL
same,MIC,"[4]; clinical strain 74 (Table S2), read-out: MIC",1.6 µg/mL
same,MIC,"[4]; clinical strain 75 (Table S2), read-out: MIC",1.6 µg/mL
same,MIC,"[4]; clinical strain 76 (Table S2), read-out: MIC",1.6 µg/mL
same,MIC,"[4]; clinical strain 77 (Table S2), read-out: MIC",1.6 µg/mL
same,MIC,"[4]; clinical strain 78 (Table S2), read-out: MIC",3.12 µg/mL
same,MIC,"[4]; clinical strain 79 (Table S2), read-out: MIC",12.5 µg/mL
same,MIC,"[4]; clinical strain 80 (Table S2), read-out: MIC",25 µg/mL
same,MIC,"[4]; clinical strain 81 (Table S2), read-out: MIC",50 µg/mL
same,MIC,"[4]; mean of MIC values against clinical MDR-SE isolates, read-out: mean MIC",2.3 µg/mL
same,MIC50,"[4]; 81 clinical strains, concentration inhibiting growth of 50% clinical isolates",0.8 µg/mL
same,MIC90,"[4]; 81 clinical strains, concentration inhibiting growth of 90% of clinical isolates",1.6 µg/mL
